Assay results taken from US12161646B2, “Polycyclic carbamoylpyridone derivatives, pharmaceutical compositions and use thereof” (JIAXING ANDICON BIOTECH CO., LTD., priority 2018, dated 2024).

Tested on: influenza virus
Test: CPE suppression effect confirmation test
Format: cell-based
Conditions: relative to S-033188A

| SMILES | CPE inhibitory effect compared with S-033188A |
| --- | --- |
| [2H][C@]1(N2[C@@H]3COCCN3C(=O)c3c(O)c(=O)ccn32)c2ccccc2SCc2c1ccc(F)c2F [1A] | twice |
| [2H]C1([2H])Sc2ccccc2[C@]([2H])(N2[C@@H]3COCCN3C(=O)c3c(O)c(=O)ccn32)c2ccc(F)c(F)c21 [3A] | twice |

Same assay, conditions: unidentified influenza virus, 72 h, read-out: CPE_EC50

| SMILES | EC50 [µM] |
| --- | --- |
| [2H][C@]1(N2[C@@H]3COCCN3C(=O)c3c(O)c(=O)ccn32)c2ccccc2SCc2c1ccc(F)c2F [1A] | 0.00068 |
| [2H]C1([2H])Sc2ccccc2[C@]([2H])(N2[C@@H]3COCCN3C(=O)c3c(O)c(=O)ccn32)c2ccc(F)c(F)c21 [3A] | 0.0006 |

Tested on: A/WS/33, A/Victoria/3/75 or B/Maryland/1/59
Test: not given
Format: in vivo, BALB/cAnNCrlCrlj mice
Conditions: single oral administration, 50% lethal suppression, 14 days after infection

| SMILES | ED50 [mg/kg/day] |
| --- | --- |
| [2H][C@]1(N2[C@@H]3COCCN3C(=O)c3c(OCOC(=O)OC)c(=O)ccn32)c2ccccc2SCc2c1ccc(F)c2F [1B] | 0.41 |
| [2H]C1([2H])Sc2ccccc2[C@@H](N2[C@@H]3COCCN3C(=O)c3c(OCOC(=O)OC)c(=O)ccn32)c2ccc(F)c(F)c21 [2B] | 0.71 |
| [2H]C1([2H])Sc2ccccc2[C@]([2H])(N2[C@@H]3COCCN3C(=O)c3c(OCOC(=O)OC)c(=O)ccn32)c2ccc(F)c(F)c21 [3B] | 0.33 |
| COC(=O)OCOc1c2n(ccc1=O)N([C@@H]1c3ccccc3SCc3c1ccc(F)c3F)[C@@H]1COCCN1C2=O [S-033188B, reference compound] | 0.78 |

Tested on: not listed separately
Test: Bioavailability test
Format: in vivo, SD rats
Conditions: SD rats, from AUC of oral and intravenous administration
Experimental: Example 6: Bioavailability Test
<Experimental Materials and Methods for Oral Absorption Research>
• (1) Animals used: SD rats are used. • (2) Feeding conditions: SD rats were allowed to take in solid feed and purified water freely. • (3) Dosing amount and grouping setting: Oral or intravenous administration were performed at prescribed dosage. The groups were set as follows. (the dosage of each compound varied)
Oral administration 1 to 30 mg/kg (n=5 to 6)
Intravenous administration 0.5 to 10 mg/kg (n=5 to 6) • (4) Preparation of dosing solution: suspension was used for oral administration through intragastric administration. Solution was used for intravenous administration through tail vein. • (5) Evaluation items: Blood was collected overtime, and the concentrations of the drugs in plasma were determined by LC/MS/MS. • (6) Statistical analysis: For concentration changes in plasma, the area under the concentration-time curve (AUC) in plasma was calculated using the nonlinear least squares method, and the bioavailability (BA) was calculated from the AUC in the oral administration group and the intravenous administration group, and the elimination half-life of drug concentration in plasma through intravenous administration was counted.

| SMILES | BA% [%] |
| --- | --- |
| [2H][C@]1(N2[C@@H]3COCCN3C(=O)c3c(O)c(=O)ccn32)c2ccccc2SCc2c1ccc(F)c2F [1A] | 7.1 |
| [2H][C@]1(N2[C@@H]3COCCN3C(=O)c3c(OCOC(=O)OC)c(=O)ccn32)c2ccccc2SCc2c1ccc(F)c2F [1B] | 18.4 |
| [2H]C1([2H])Sc2ccccc2[C@@H](N2[C@@H]3COCCN3C(=O)c3c(O)c(=O)ccn32)c2ccc(F)c(F)c21 [2A] | 5.0 |
| [2H]C1([2H])Sc2ccccc2[C@@H](N2[C@@H]3COCCN3C(=O)c3c(OCOC(=O)OC)c(=O)ccn32)c2ccc(F)c(F)c21 [2B] | 15.9 |
| [2H]C1([2H])Sc2ccccc2[C@]([2H])(N2[C@@H]3COCCN3C(=O)c3c(O)c(=O)ccn32)c2ccc(F)c(F)c21 [3A] | 7.8 |
| [2H]C1([2H])Sc2ccccc2[C@]([2H])(N2[C@@H]3COCCN3C(=O)c3c(OCOC(=O)OC)c(=O)ccn32)c2ccc(F)c(F)c21 [3B] | 19.8 |
| O=C1c2c(O)c(=O)ccn2N([C@@H]2c3ccccc3SCc3c2ccc(F)c3F)[C@@H]2COCCN12 [S-033188A, reference compound] | 4.7 |
| COC(=O)OCOc1c2n(ccc1=O)N([C@@H]1c3ccccc3SCc3c1ccc(F)c3F)[C@@H]1COCCN1C2=O [S-033188B, reference compound] | 15.3 |

Same assay, conditions: SD, rat, in vivo, iv

| SMILES | half-life [h] |
| --- | --- |
| [2H][C@]1(N2[C@@H]3COCCN3C(=O)c3c(O)c(=O)ccn32)c2ccccc2SCc2c1ccc(F)c2F [1A] | 4 |
| [2H]C1([2H])Sc2ccccc2[C@@H](N2[C@@H]3COCCN3C(=O)c3c(O)c(=O)ccn32)c2ccc(F)c(F)c21 [2A] | 5 |
| [2H]C1([2H])Sc2ccccc2[C@]([2H])(N2[C@@H]3COCCN3C(=O)c3c(O)c(=O)ccn32)c2ccc(F)c(F)c21 [3A] | 5.2 |
| O=C1c2c(O)c(=O)ccn2N([C@@H]2c3ccccc3SCc3c2ccc(F)c3F)[C@@H]2COCCN12 [S-033188A, reference compound] | 3.8 |

Tested on: not listed separately
Test: Detection of toxicity of samples to MDCK cells (alamarBlue)
Format: cell-based
Conditions: dog, 48 hours incubation
From the text: Example 9: Detection of Toxicity of Samples to MDCK Cells
The experiment uses alamarBlue® (Invitrogen) kit to detect the toxic effects of drugs on cells.
Experimental principle: The experiment uses alamarBlue® (Invitrogen) kit to detect the toxic effects of drugs on cells. AlamarBlue® is a redox indicator that produces changes in absorbance and fluorescent signals based on cellular metabolic activity. AlamarBlue® is freely soluble in water. After its oxidized form enters cells, it will be reduced by mitochondrial enzymes to produce measurable fluorescence and color changes. It is used for quantitative analysis of cell viability and cell proliferation, and for in vitro cytotoxicity studies. Normal cells with metabolic activity can convert the reagents to produce strong fluorescence and color changes.
Experimental procedure: MDCK cells were seeded in a 96-well cell culture plate, and cultured till cell attachment for later use. The drug was serially 3 times diluted from 2 times the highest test concentration to 8 gradients. The drug was added to the cells and cultured in a CO2 incubator at 37° C. […] The toxicity of the drug to cells is inversely proportional to the activity of the cells and is expressed as the activity of the cells. cell activity (%)=(drug group-blank control)/(cell control-blank control)*100 Calculation formula: […]

| SMILES | CC50 at 48 h [µM] |
| --- | --- |
| [2H][C@]1(N2[C@@H]3COCCN3C(=O)c3c(O)c(=O)ccn32)c2ccccc2SCc2c1ccc(F)c2F [1A] | 48.3 |
| O=C1c2c(O)c(=O)ccn2N([C@@H]2c3ccccc3SCc3c2ccc(F)c3F)[C@@H]2COCCN12 [S-033188A, reference compound] | 29.9 |
